Results from patent US12472231B2 (priority 2020, dated 2025).
Where a SMILES comes first, the peptide text is derived from it.

Test system: A(H1N1)pdm09 virus
Assay: microbe, parasite or virus in culture
Format: cell-based

Compound | emergence of drug-resistant virus after serial passages in presence of the agent | inhibition of P30 virus replication | inhibition of P40 virus replication | inhibition of P10 virus replication (2000 nM) | inhibition of P15 virus replication (8000 nM) | IC50 (Influenza A virus, H1N1, MDCK, 24 h, read-out: IC50 against parent A(H1N1)pdm09 virus (P0)) [nM]
CC[C@H](C)[C@H](NC(=O)[C@H](C)NC(=O)CNC(=O)[C@@H](N)CC(N)=O)C(=O)N[C@@H](CS)C(=O)N[C@@H](Cc1c[nH]c2ccccc12)C(=O)NCC(=O)N1CCC[C@H]1C(=O)N[C@@H](CS)C(=O)N1CCC[C@H]1C(=O)N[C@H](C(=O)N[C@@H](C)C(=O)N[C@@H](Cc1ccccc1)C(=O)N[C@@H](CCCNC(=N)N)C(=O)N[C@@H](CCC(N)=O)C(=O)N[C@H](C(=O)NCC(=O)N[C@@H](CC(N)=O)C(=O)N[C@@H](CS)C(=O)NCC(=O)N[C@@H](CCCNC(=N)N)C(=O)N[C@@H](Cc1ccccc1)C(=O)N[C@@H](CCCNC(=N)N)C(=O)N[C@H](C(=O)N[C@@H](CCCNC(=N)N)C(=O)N[C@@H](CS)C(=O)N[C@@H](CS)C(=O)N[C@@H](CCCNC(=N)N)C(=O)N[C@H](C(=O)N[C@@H](CCCNC(=N)N)C(=O)O)[C@@H](C)CC)C(C)C)[C@@H](C)CC)[C@@H](C)O [P9R] (H-NGAICWGPCPTAFRQIGNCGRFRVRCCRIR-OH) | No obvious drug-resistant virus | could efficiently inhibit | could efficiently inhibit |  |  | 
